PubChem BioAssay (NCI)
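Where inhibition never reached the appropriate level, the endpoint shown equals the highest concentration tested. Otherwise, values were interpolated linearly from a five-concentration, 48-hour dose response in 96-well plates. GI50: concentration for 50% inhibition of growth. Definition used: TGI = concentration required for complete inhibition of growth.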

How the values were obtained:
Experiment in all cases: DTP human tumour cell line panel, 48 h
[1] = system: SK-MEL-28 melanoma
[2] = system: SNB-75 CNS
[3] = system: RPMI-8226 leukemia
[4] = system: OVCAR-3 ovarian
[5] = system: UACC-257 melanoma
[6] = system: KM20L2 colon
[7] = system: IGROV1 ovarian
[8] = system: UO-31 renal
[9] = system: SW-620 colon
[10] = system: M19-MEL melanoma
[11] = system: HCC-2998 colon

## NC(=O)c1nc(-c2ccc(Cl)c(Cl)c2)nc2ccccc12
[1]
  TGI: > 40.9 µM
[2]
  TGI: 11.7 µM
[3]
  TGI: > 100 µM
[4]
  TGI: > 29.4 µM
[5]
  TGI: > 100 µM
[6]
  TGI: > 100 µM
[7]
  TGI: > 100 µM
[8]
  TGI: > 100 µM
[9]
  TGI: > 100 µM
[10]
  TGI: > 100 µM

## CCOC(=O)CC(C)C1(C=O)CCCCC1=O (stereo not drawn)
[1]
  TGI: > 100 µM
[2]
  TGI: > 100 µM
[3]
  TGI: 53.2 µM
[4]
  TGI: > 100 µM
[11]
  TGI: > 100 µM
[5]
  TGI: > 100 µM
[6]
  TGI: > 100 µM
[7]
  TGI: > 100 µM
[8]
  TGI: > 100 µM
[10]
  TGI: > 100 µM

## O=S(=O)(Nc1ccc(Cl)c(Cl)c1)c1ccc(-c2cnc(C3CC3)o2)cc1
[1]
  GI50: 4.19 µM
  TGI: 21.5 µM
[2]
  GI50: 0.138 µM
  TGI: 0.558 µM
[3]
  GI50: 0.612 µM
  TGI: 43.5 µM
[4]
  GI50: 0.277 µM
  TGI: 0.967 µM
[11]
  GI50: 1.81 µM
  TGI: 10.3 µM
[5]
  GI50: 4.62 µM
  TGI: 27.1 µM
[7]
  GI50: 0.587 µM
  TGI: 15.8 µM
[8]
  GI50: 0.498 µM
  TGI: 15.9 µM
[9]
  GI50: 0.336 µM
  TGI: 15.3 µM

## CCCCOP1(=O)CC(C)=C(Cl)C(C)(OC)C1 (stereo not drawn)
[1]
  TGI: > 100 µM
[2]
  TGI: > 100 µM
[4]
  TGI: > 100 µM
[11]
  TGI: > 100 µM
[5]
  TGI: > 100 µM
[6]
  TGI: > 100 µM
[7]
  TGI: > 100 µM
[8]
  TGI: > 100 µM
[9]
  TGI: > 100 µM
[10]
  TGI: > 100 µM

## O=C(N/C(=C\c1ccc(F)cc1)c1nc2ccccc2[nH]1)c1ccccc1
[1]
  TGI: > 100 µM
[2]
  TGI: > 100 µM
[3]
  TGI: > 100 µM
[4]
  TGI: > 100 µM
[5]
  TGI: > 100 µM
[6]
  TGI: > 100 µM
[7]
  TGI: > 100 µM
[8]
  TGI: > 100 µM
[9]
  TGI: > 100 µM
[10]
  TGI: > 100 µM

## COc1ccc(C2C3=C(COC3=O)N(CCO)c3cc4c(cc32)CCC4)cc1 (stereo not drawn)
[1]
  GI50: 5.31 µM
  TGI: > 50 µM
[2]
  GI50: 1.46 µM
  TGI: 13.7 µM
[3]
  GI50: 11.4 µM
  TGI: > 50 µM
[4]
  GI50: 1.07 µM
  TGI: 2.97 µM
[11]
  GI50: 5.76 µM
  TGI: 25.8 µM
[5]
  GI50: 4.34 µM
  TGI: > 50 µM
[7]
  GI50: 2.15 µM
  TGI: 18.4 µM
[8]
  GI50: 5.86 µM
  TGI: > 50 µM
[9]
  GI50: 2.17 µM
  TGI: > 50 µM

## CC1/C(=N/O)CC(c2ccccc2)N(N=O)C1c1ccccc1 (stereo not drawn)
[1]
  TGI: > 100 µM
[2]
  TGI: > 100 µM
[3]
  TGI: > 100 µM
[4]
  TGI: > 100 µM
[11]
  TGI: > 100 µM
[5]
  TGI: > 100 µM
[7]
  TGI: > 100 µM
[8]
  TGI: > 100 µM
[9]
  TGI: > 100 µM

## CC[C@@H](C(=O)[C@@H](C)[C@@H](O)[C@H](C)[C@@H]1O[C@@H]([C@@H](CC)C(=O)O)CC[C@@H]1C)[C@H]1O[C@]2(C=C[C@@H](O)[C@]3(CC[C@@](C)([C@H]4CC[C@](O)(CC)[C@H](C)O4)O3)O2)[C@H](C)C[C@@H]1C
[1]
  GI50: 1.14 µM
  TGI: 2.38 µM
[2]
  GI50: 1.05 µM
  TGI: 4.31 µM
[3]
  GI50: 0.277 µM
  TGI: 3.75 µM
[4]
  GI50: 0.166 µM
  TGI: 25.8 µM
[11]
  GI50: 0.166 µM
  TGI: 13 µM
[5]
  GI50: 0.461 µM
  TGI: 6.79 µM
[7]
  GI50: 2.05 µM
  TGI: > 84.7 µM
[8]
  GI50: 1.05 µM
  TGI: 25.5 µM
[9]
  GI50: 1.56 µM
  TGI: 12.6 µM

## CCCCCC/C(CC(=O)CCC(=O)NCCc1ccccc1)=N\Nc1ccc([N+](=O)[O-])cc1[N+](=O)[O-]
[1]
  TGI: > 100 µM
[3]
  TGI: 81.7 µM
[4]
  TGI: > 100 µM
[11]
  TGI: > 100 µM
[5]
  TGI: > 100 µM
[6]
  TGI: > 100 µM
[7]
  TGI: > 100 µM
[8]
  TGI: > 100 µM
[9]
  TGI: > 100 µM
[10]
  TGI: > 100 µM

## C[C@@H]1Cc2c(ccc3[nH]ncc23)[C@@H](c2ccc(NC3CN(CCCF)C3)cn2)N1CC(F)(F)F
[1]
  GI50: 16.5 µM
  TGI: 32.1 µM
[2]
  GI50: 12.7 µM
  TGI: > 100 µM
[3]
  GI50: 18.6 µM
  TGI: 47.4 µM
[4]
  GI50: 20.3 µM
  TGI: 57.8 µM
[11]
  GI50: 17.2 µM
  TGI: 33.5 µM
[5]
  GI50: 17.9 µM
  TGI: 38.3 µM
[7]
  GI50: 20.2 µM
  TGI: 62.4 µM
[8]
  GI50: 12.6 µM
  TGI: 26.8 µM
[9]
  GI50: 17.5 µM
  TGI: 34.3 µM

## C=CCCC(=O)CC(=O)OCc1ccccc1
[2]
  TGI: > 100 µM
[3]
  TGI: > 100 µM
[4]
  TGI: > 100 µM
[11]
  TGI: > 100 µM
[5]
  TGI: > 100 µM
[6]
  TGI: > 100 µM
[7]
  TGI: > 100 µM
[8]
  TGI: > 100 µM
[9]
  TGI: > 100 µM
[10]
  TGI: > 100 µM

## CNc1nc(-c2ccc3c(N)n[nH]c3c2)cc(N2C[C@@H](C(=O)NC3CCCCC3)CC[C@H]2C)n1
[1]
  GI50: 1.68 µM
  TGI: 15.8 µM
[2]
  GI50: 0.457 µM
  TGI: 7.23 µM
[3]
  GI50: 2.93 µM
  TGI: 18.3 µM
[4]
  GI50: 2.16 µM
  TGI: 15.6 µM
[11]
  GI50: 8.53 µM
  TGI: 21.7 µM
[5]
  GI50: 1.3 µM
  TGI: 16.8 µM
[7]
  GI50: 2.45 µM
  TGI: 14.9 µM
[8]
  GI50: 0.854 µM
  TGI: 13.7 µM
[9]
  GI50: 6.85 µM
  TGI: 23.4 µM

## Cc1nc(-n2nc(-c3ccccc3)cc2-c2ccccc2)sc1C(=O)/C=C/c1cccc([N+](=O)[O-])c1
[1]
  TGI: 34.1 µM
[2]
  TGI: 51.7 µM
[3]
  TGI: 19.4 µM
[4]
  TGI: 15.4 µM
[11]
  TGI: 28.8 µM
[5]
  TGI: 66.1 µM
[6]
  TGI: 40.8 µM
[7]
  TGI: 92.2 µM
[8]
  TGI: 23.7 µM
[10]
  TGI: 30.4 µM

## COC1CC(n2cc(F)c(N)nc2=O)OC1CO (stereo not drawn)
[1]
  TGI: > 100 µM
[2]
  TGI: > 100 µM
[3]
  TGI: > 100 µM
[4]
  TGI: > 100 µM
[11]
  TGI: > 100 µM
[5]
  TGI: > 100 µM
[6]
  TGI: > 100 µM
[8]
  TGI: > 100 µM
[9]
  TGI: > 100 µM

## CS(=O)(=O)CCNCc1ccoc1-c1ccc2ncnc(Nc3ccc(OCc4ccccc4)cc3)c2c1
[1]
  GI50: > 25 µM
  TGI: > 25 µM
[2]
  GI50: > 7.41 µM
  TGI: > 25 µM
[3]
  GI50: > 25 µM
  TGI: > 25 µM
[4]
  GI50: > 25 µM
  TGI: > 25 µM
[11]
  GI50: > 25 µM
  TGI: > 25 µM
[5]
  GI50: > 25 µM
  TGI: > 25 µM
[7]
  GI50: > 17 µM
  TGI: > 25 µM
[8]
  GI50: 2.26 µM
  TGI: > 25 µM
[9]
  GI50: > 25 µM
  TGI: > 25 µM

## Cc1c2ccccc2c(C)n2c1nc1cc(Cl)c(Cl)cc12
[1]
  GI50: > 100 µM
  TGI: > 100 µM
[2]
  GI50: 36.9 µM
  TGI: > 100 µM
[3]
  GI50: 18.4 µM
  TGI: > 100 µM
[4]
  GI50: 18.6 µM
[11]
  GI50: > 100 µM
  TGI: > 100 µM
[5]
  GI50: > 100 µM
  TGI: > 100 µM
[7]
  GI50: 8.62 µM
  TGI: > 100 µM
[8]
  GI50: 8.14 µM
  TGI: > 100 µM
[9]
  GI50: 74.1 µM
  TGI: > 100 µM
